We go through 19 molecules from patent publication US20120149660A1, “NOVEL N-SUBSTITUTED 5-HYDROXYPYROLLINDES AS INHIBITORS OF MDM2-P53 INTERACTIONS” (priority 2010, published 2012).

Counter-ions that a name gives are not always drawn.

Chain of interaction between p53 and MDM2 proteins (recombinant GST-tagged MDM2 / biotinylated p53 peptide) (Q00987 whole entry): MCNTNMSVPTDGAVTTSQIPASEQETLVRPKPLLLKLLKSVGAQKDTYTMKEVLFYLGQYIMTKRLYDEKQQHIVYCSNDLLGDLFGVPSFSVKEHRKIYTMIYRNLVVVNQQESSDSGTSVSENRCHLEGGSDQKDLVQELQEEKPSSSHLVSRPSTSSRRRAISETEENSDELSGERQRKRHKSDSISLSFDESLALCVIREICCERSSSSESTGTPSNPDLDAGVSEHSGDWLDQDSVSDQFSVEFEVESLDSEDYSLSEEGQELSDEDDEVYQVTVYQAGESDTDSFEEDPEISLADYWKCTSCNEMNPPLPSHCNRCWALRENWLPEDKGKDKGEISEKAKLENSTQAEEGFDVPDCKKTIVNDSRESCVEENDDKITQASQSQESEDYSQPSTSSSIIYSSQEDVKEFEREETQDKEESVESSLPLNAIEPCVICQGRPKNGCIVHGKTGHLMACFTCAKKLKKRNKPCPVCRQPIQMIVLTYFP

The target of the test is interaction between p53 and MDM2 proteins (recombinant GST-tagged MDM2 / biotinylated p53 peptide) (Homo sapiens, UniProt Q00987). Description: HTRF (homogeneous time-resolved fluorescence) assay of p53-MDM2 interaction inhibition. It is filed as binding. To be noted: bsa: 0.02%. How it is done:
The ability of the compounds to inhibit the interaction between p53 and MDM2 proteins was measured by an HTRF (homogeneous time-resolved fluorescence) assay in which recombinant GST-tagged MDM2 binds to a peptide that resembles the MDM2-interacting region of p53. Binding of GST-MDM2 protein and p53-peptide (biotinylated on its N-terminal end) is registered by the FRET (fluorescence resonance energy transfer) between Europium (Eu)-labeled anti-GST antibody and streptavidin-conjugated Allophycocyanin (APC).
[…] Add 10 uL diluted compounds (1:5 dilution in reaction buffer) to each well, mix by shaking Add 20 uL biotinylated p53 peptide (180 nM working solution) in reaction buffer to each well and mix on shaker. Incubate at 37° C. for 1 h. Add 20 uL streptavidin-APC and Eu-anti-GST antibody mixture (6 nM Eu-anti-GST and 60 nM streptavidin-APC working solution) in TBS buffer with 0.2% BSA, shake at room temperature for 30 minutes and read using a TRF-capable plate reader at 665 and 615 nm (Victor 5; Perkin Elmer Wallac). If not specified, the reagents were purchased from Sigma Chemical Co.
Background: In TR-FRET formats the signal depends on donor and acceptor labels being close together.
A word on the IC50: it is the concentration that gives 50% inhibition. As for `CC(C)(C)C[C@@H]1N[C@@H](CO)[C@H](c2cccc(Cl)c2)[C@@]1(C#N)c1ccc(Cl)cc1` (racemic) [Example 1, rac(2S,3R,4R,5R)-4-(3-chloro-phenyl)-3-(4-chloro-phenyl)-2-(2,2-dimethyl-propyl)-5-hydroxymethyl-pyrrolidine-3-carbonitrile], the concentration for half-maximal inhibition (IC50) amounted to 2860 nM. For `CC(C)(C)C[C@@H]1N(CC[C@@H](O)[C@H](O)[C@H](O)CO)[C@@H](CO)[C@H](c2cccc(Cl)c2)[C@@]1(C#N)c1ccc(Cl)cc1` (racemic) [Example 2, rac(2S,3R,4R,5R)-4-(3-chloro-phenyl)-3-(4-chloro-phenyl)-2-(2,2-dimethyl-propyl)-5-hydroxymethyl-1-((3R,4S,5R)-3,4,5,6-tetrahydroxy-hexyl)-pyrrolidine-3-carbonitrile], the IC50 worked out at 740 nM. With `CC(C)(C)C[C@@H]1N[C@@H](CO)[C@H](c2cccc(Cl)c2F)[C@@]1(C#N)c1ccc(Cl)cc1F` (racemic) [Example 3, rac(2S,3R,4S,5R)-4-(3-chloro-2-fluoro-phenyl)-3-(4-chloro-2-fluoro-phenyl)-2-(2,2-dimethyl-propyl)-5-hydroxymethyl-pyrrolidine-3-carbonitrile] the figure was 971 nM. With `CC(C)(C)C[C@@H]1N(CC[C@@H](O)[C@H](O)[C@H](O)CO)[C@@H](CO)[C@H](c2cccc(Cl)c2F)[C@@]1(C#N)c1ccc(Cl)cc1F` (racemic) [Example 4, rac(2S,3R,4S,5R)-4-(3-chloro-2-fluoro-phenyl)-3-(4-chloro-2-fluoro-phenyl)-2-(2,2-dimethyl-propyl)-5-hydroxymethyl-1-((3R,4S,5R)-3,4,5,6-tetrahydroxy-hexyl)-pyrrolidine-3-carbonitrile] the figure was 164 nM; with `CC(C)(C)C[C@@H]1N(CCCc2ccc(C(=O)O)cc2)[C@@H](CO)[C@H](c2cccc(Cl)c2F)[C@@]1(C#N)c1ccc(Cl)cc1F` [Example 5, 4-{3-[(2S,3R,4S,5R)-4-(3-chloro-2-fluoro-phenyl)-3-(4-chloro-2-fluoro-phenyl)-3-cyano-2-(2,2-dimethyl-propyl)-5-hydroxymethyl-pyrrolidin-1-yl]-propyl}-benzoic acid], 212 nM. To `CCOC(=O)c1ccc(CCCN2[C@@H](CC(C)(C)C)[C@](C#N)(c3ccc(Cl)cc3F)[C@@H](c3cccc(Cl)c3F)[C@@H]2CO)cc1` [Example 6, 4-{3-[(2S,3R,4S,5R)-4-(3-chloro-2-fluoro-phenyl)-3-(4-chloro-2-fluoro-phenyl)-3-cyano-2-(2,2-dimethyl-propyl)-5-hydroxymethyl-pyrrolidin-1-yl]-propyl}-benzoic acid ethyl ester] belongs 4130 nM; to `CC(C)(C)C[C@@H]1N[C@@H](CO)[C@H](c2cccc(Cl)c2F)[C@@]1(C#N)c1ccc(Cl)cc1F` [Example 7, (2S,3R,4S,5R)-4-(3-chloro-2-fluoro-phenyl)-3-(4-chloro-2-fluoro-phenyl)-2-(2,2-dimethyl-propyl)-5-hydroxymethyl-pyrrolidine-3-carbonitrile], 182 nM.

On to `CCOC(=O)C1CC1CN1[C@@H](CC(C)(C)C)[C@](C#N)(c2ccc(Cl)cc2F)[C@@H](c2cccc(Cl)c2F)[C@@H]1CO` (stereo partly drawn) [Example 8, 2-[(2S,3R,4S,5R)-4-(3-chloro-2-fluoro-phenyl)-3-(4-chloro-2-fluoro-phenyl)-3-cyano-2-(2,2-dimethyl-propyl)-5-hydroxymethyl-pyrrolidin-1-ylmethyl]-cyclopropanecarboxylic acid ethyl ester], for which the IC50 is 2320 nM. To `CC(C)(C)C[C@@H]1N(Cc2ccc(OCCO)cc2)[C@@H](CO)[C@H](c2cccc(Cl)c2F)[C@@]1(C#N)c1ccc(Cl)cc1F` [Example 9, (2S,3R,4S,5R)-4-(3-chloro-2-fluoro-phenyl)-3-(4-chloro-2-fluoro-phenyl)-2-(2,2-dimethyl-propyl)-1-[4-(2-hydroxy-ethoxy)-benzyl]-5-hydroxymethyl-pyrrolidine-3-carbonitrile] belongs 2110 nM; to `CC(C)(C)C[C@@H]1N(C[C@@H]2C[C@H]2C(=O)O)[C@@H](CO)[C@H](c2cccc(Cl)c2F)[C@@]1(C#N)c1ccc(Cl)cc1F` [Example 10a, (1R,2R)-2-[(2S,3R,4S,5R)-4-(3-chloro-2-fluoro-phenyl)-3-(4-chloro-2-fluoro-phenyl)-3-cyano-2-(2,2-dimethyl-propyl)-5-hydroxymethyl-pyrrolidin-1-ylmethyl]-cyclopropanecarboxylic acid], 87 nM; to `CC(C)(C)C[C@@H]1N(CC#C[Si](C)(C)C)[C@@H](CO)[C@H](c2cccc(Cl)c2F)[C@@]1(C#N)c1ccc(Cl)cc1F` [Example 11, (2S,3R,4S,5R)-4-(3-Chloro-2-fluoro-phenyl)-3-(4-chloro-2-fluoro-phenyl)-2-(2,2-dimethyl-propyl)-5-hydroxymethyl-1-(3-trimethylsilanyl-prop-2-ynyl)-pyrrolidine-3-carbonitrile], 1080 nM. With `CC(C)(C)C[C@@H]1N(CCCc2ccc(C(N)=O)cc2)[C@@H](CO)[C@H](c2cccc(Cl)c2F)[C@@]1(C#N)c1ccc(Cl)cc1F` [Example 12, 4-{3-[(2S,3R,4S,5R)-4-(3-chloro-2-fluoro-phenyl)-3-(4-chloro-2-fluoro-phenyl)-3-cyano-2-(2,2-dimethyl-propyl)-5-hydroxymethyl-pyrrolidin-1-yl]-propyl}-benzamide trifluoroacetate salt] the figure was 1520 nM; with `Cc1ccc(CCCN2[C@@H](CC(C)(C)C)[C@](C#N)(c3ccc(Cl)cc3F)[C@@H](c3cccc(Cl)c3F)[C@@H]2CO)o1` [Example 13, (2S,3R,4S,5R)-4-(3-chloro-2-fluoro-phenyl)-3-(4-chloro-2-fluoro-phenyl)-2-(2,2-dimethyl-propyl)-5-hydroxymethyl-1-[3-(5-methyl-furan-2-yl)-propyl]-pyrrolidine-3-carbonitrile trifluoroacetate salt], 1670 nM; with `C#CCN1[C@@H](CC(C)(C)C)[C@](C#N)(c2ccc(Cl)cc2F)[C@@H](c2cccc(Cl)c2F)[C@@H]1CO` [Example 14, (2S,3R,4S,5R)-4-(3-chloro-2-fluoro-phenyl)-3-(4-chloro-2-fluoro-phenyl)-2-(2,2-dimethyl-propyl)-5-hydroxymethyl-1-prop-2-ynyl-pyrrolidine-3-carbonitrile], 2360 nM. With `COC(=O)c1ccc(C#CCN2[C@@H](CC(C)(C)C)[C@](C#N)(c3ccc(Cl)cc3F)[C@@H](c3cccc(Cl)c3F)[C@@H]2CO)cc1F` [Example 15, 4-{3-[(2S,3R,4S,5R)-4-(3-chloro-2-fluoro-phenyl)-3-(4-chloro-2-fluoro-phenyl)-3-cyano-2-(2,2-dimethyl-propyl)-5-hydroxymethyl-pyrrolidin-1-yl]-prop-1-ynyl}-2-fluoro-benzoic acid methyl ester] the figure was 887 nM. For `CC(C)(C)C[C@@H]1N(CCCC2CCOCC2)[C@@H](CO)[C@H](c2cccc(Cl)c2F)[C@@]1(C#N)c1ccc(Cl)cc1F` [Example 16, (2S,3R,4S,5R)-4-(3-chloro-2-fluoro-phenyl)-3-(4-chloro-2-fluoro-phenyl)-2-(2,2-dimethyl-propyl)-5-hydroxymethyl-1-[3-(tetrahydro-pyran-4-yl)-propyl]-pyrrolidine-3-carbonitrile], the IC50 came to 489 nM. Turning to `CC(C)(C)C[C@@H]1N(CCCc2cn(C(c3ccccc3)(c3ccccc3)c3ccccc3)cn2)[C@@H](CO)[C@H](c2cccc(Cl)c2F)[C@@]1(C#N)c1ccc(Cl)cc1F` [Example 17, (2S,3R,4S,5R)-4-(3-chloro-2-fluoro-phenyl)-3-(4-chloro-2-fluoro-phenyl)-2-(2,2-dimethyl-propyl)-5-hydroxymethyl-1-[3-(1-trityl-1H-imidazol-4-yl)-propyl]-pyrrolidine-3-carbonitrile], the 50% inhibitory concentration (IC50) turned out to be 215 nM. On to `CC(C)(C)C[C@@H]1N(CC#Cc2ccc(C(=O)O)c(F)c2)[C@@H](CO)[C@H](c2cccc(Cl)c2F)[C@@]1(C#N)c1ccc(Cl)cc1F` [Example 18, 4-{3-[(2S,3R,4S,5R)-4-(3-chloro-2-fluoro-phenyl)-3-(4-chloro-2-fluoro-phenyl)-3-cyano-2-(2,2-dimethyl-propyl)-5-hydroxymethyl-pyrrolidin-1-yl]-prop-1-ynyl}-2-fluoro-benzoic acid], for which the concentration for half-maximal inhibition (IC50) is 70.8 nM. “(1S,2S)-2-[(2S,3R,4S,5R)-4-(3-chloro-2-fluoro-phenyl)-3-(4-chloro-2-fluoro-phenyl)-3-cyano-2-(2,2-dimethyl-propyl)-5-hydroxymethyl-pyrrolidin-1-ylmethyl]-cyclopropanecarboxylic acid [Example 10b]”: the concentration for half-maximal inhibition (IC50) is 242 nM.
